Structures can show the parent of a compound that is named as a salt. Where two headings read alike, the source gives them in different places.
Biological target: T1, hNaV1.7 (Homo sapiens, UniProt Q15858)
T1 construct: expressed in transfected cells; host or cells: HEK293
Experiment: QPatch NaV1.7 assay (whole-cell patch clamp, QPatch16x)
Type: cell-based
Conditions: HEK293-hNaV1.7 cells
Outline: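 HEK293 cells expressing hNaV1.7 recorded by automated whole-cell patch clamp (CsF internal, pH 7.3). Peak currents from 20 ms steps to 0 mV measured at holding potentials of −90 mV and V1/2 SSI; four-point cumulative concentrations, 120 s each, Hill fits gave pIC50 at each potential.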

[1] = holding voltage V1/2 SSI (half of channels inactivated), read-out: QP Nav1.7 SSI vhalf pIC50 (converted)
[2] = holding voltage −90 mV (most channels closed), read-out: QP Nav1.7 −90 mV pIC50 (converted)

T1 sequence (Q15858 whole entry): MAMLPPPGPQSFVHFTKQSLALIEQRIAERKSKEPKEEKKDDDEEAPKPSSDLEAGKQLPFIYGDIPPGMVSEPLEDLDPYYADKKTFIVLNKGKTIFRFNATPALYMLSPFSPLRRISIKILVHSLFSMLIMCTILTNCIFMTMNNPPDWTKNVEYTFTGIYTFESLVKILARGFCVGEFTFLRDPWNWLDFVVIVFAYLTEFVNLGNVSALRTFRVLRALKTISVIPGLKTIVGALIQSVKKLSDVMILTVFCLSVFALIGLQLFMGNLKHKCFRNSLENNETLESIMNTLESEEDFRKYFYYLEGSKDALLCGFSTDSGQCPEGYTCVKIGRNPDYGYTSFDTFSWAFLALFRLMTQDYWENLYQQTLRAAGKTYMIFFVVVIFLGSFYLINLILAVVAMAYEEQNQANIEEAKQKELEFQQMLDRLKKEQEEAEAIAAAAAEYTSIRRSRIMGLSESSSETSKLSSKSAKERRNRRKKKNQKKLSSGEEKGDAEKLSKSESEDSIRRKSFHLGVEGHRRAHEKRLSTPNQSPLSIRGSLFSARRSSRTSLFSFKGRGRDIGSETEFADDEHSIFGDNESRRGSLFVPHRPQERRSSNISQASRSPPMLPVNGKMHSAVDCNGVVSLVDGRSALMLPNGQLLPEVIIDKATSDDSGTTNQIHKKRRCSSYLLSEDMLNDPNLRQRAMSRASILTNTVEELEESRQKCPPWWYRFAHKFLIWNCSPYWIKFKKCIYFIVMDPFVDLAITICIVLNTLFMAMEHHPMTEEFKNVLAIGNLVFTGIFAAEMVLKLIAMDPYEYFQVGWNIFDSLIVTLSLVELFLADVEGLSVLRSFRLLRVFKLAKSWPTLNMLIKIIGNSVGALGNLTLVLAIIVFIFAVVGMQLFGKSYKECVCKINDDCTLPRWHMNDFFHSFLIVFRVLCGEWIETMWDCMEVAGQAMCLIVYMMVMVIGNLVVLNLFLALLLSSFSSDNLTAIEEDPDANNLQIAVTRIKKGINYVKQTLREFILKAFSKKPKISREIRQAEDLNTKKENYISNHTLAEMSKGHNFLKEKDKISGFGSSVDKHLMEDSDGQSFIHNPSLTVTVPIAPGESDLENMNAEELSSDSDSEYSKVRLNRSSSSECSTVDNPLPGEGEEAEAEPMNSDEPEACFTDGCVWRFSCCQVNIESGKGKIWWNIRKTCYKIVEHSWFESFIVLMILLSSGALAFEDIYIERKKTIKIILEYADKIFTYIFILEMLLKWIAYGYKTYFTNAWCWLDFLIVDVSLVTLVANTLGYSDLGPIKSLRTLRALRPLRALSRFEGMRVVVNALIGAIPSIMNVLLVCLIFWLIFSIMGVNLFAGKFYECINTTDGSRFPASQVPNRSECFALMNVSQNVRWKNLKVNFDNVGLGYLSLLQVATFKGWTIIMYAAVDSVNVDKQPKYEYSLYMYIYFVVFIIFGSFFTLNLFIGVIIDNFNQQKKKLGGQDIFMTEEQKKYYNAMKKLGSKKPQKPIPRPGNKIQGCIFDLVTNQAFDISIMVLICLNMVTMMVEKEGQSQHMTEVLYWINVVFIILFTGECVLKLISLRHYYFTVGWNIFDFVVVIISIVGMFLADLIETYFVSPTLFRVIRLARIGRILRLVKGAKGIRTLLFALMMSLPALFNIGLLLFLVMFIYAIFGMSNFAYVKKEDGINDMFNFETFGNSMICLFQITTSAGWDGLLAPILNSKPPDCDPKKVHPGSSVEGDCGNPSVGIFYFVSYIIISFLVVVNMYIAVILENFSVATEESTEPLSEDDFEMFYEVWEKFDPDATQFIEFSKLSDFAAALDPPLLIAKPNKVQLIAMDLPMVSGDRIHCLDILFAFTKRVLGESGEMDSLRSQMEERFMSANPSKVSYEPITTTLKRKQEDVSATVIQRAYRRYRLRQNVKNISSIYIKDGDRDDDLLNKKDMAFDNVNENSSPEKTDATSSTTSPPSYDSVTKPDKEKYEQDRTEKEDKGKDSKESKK

| IC50 [1] | IC50 [2] | SMILES |
| --- | --- | --- |
| 7.94 µM | 31.6 µM | CN1CCC[C@]2(CC[C@@H](c3cc(-c4ccc(C(F)(F)F)cc4)ccn3)N2)C1=O [Example 69, (2S,5S)-7-Methyl-2-[4-(4-trifluoromethyl-phenyl)-pyridin-2-yl]-1,7-diaza-spiro[4.5]decan-6-one hydrochloride] |
| 1 µM | 12.6 µM | CN1CCC[C@]2(CC[C@H](c3cc(-c4ccc(C(F)(F)F)cc4)ccn3)N2)C1=O [Example 70, (2R,5S)-7-Methyl-2-[4-(4-trifluoromethyl-phenyl)-pyridin-2-yl]-1,7-diaza-spiro[4.5]decan-6-one hydrochloride] |
| 20 µM | 126 µM | CN1CCC[C@@]2(CC[C@H](c3cc(-c4ccc(F)cc4)ccn3)N2)C1=O [Example 71, (2R,5R)-2-[4-(4-Fluoro-phenyl)-pyridin-2-yl]-7-methyl-1,7-diaza-spiro[4.5]decan-6-one hydrochloride] |
| 20 µM | 158 µM | CN1CCC[C@@]2(CC[C@@H](c3cc(-c4ccc(F)cc4)ccn3)N2)C1=O [Example 72, (2S,5R)-2-[4-(4-Fluoro-phenyl)-pyridin-2-yl]-7-methyl-1,7-diaza-spiro[4.5]decan-6-one hydrochloride] |
| 20 µM | 200 µM | CN1CCC[C@]2(CC[C@@H](c3cc(-c4ccc(F)cc4)ccn3)N2)C1=O [Example 73, (2S,5S)-2-[4-(4-Fluoro-phenyl)-pyridin-2-yl]-7-methyl-1,7-diaza-spiro[4.5]decan-6-one hydrochloride] |
| 7.94 µM | 63.1 µM | CN1CCC[C@]2(CC[C@H](c3cc(-c4ccc(F)cc4)ccn3)N2)C1=O [Example 74, (2R,5S)-2-[4-(4-Fluoro-phenyl)-pyridin-2-yl]-7-methyl-1,7-diaza-spiro[4.5]decan-6-one hydrochloride] |
| 20 µM | 126 µM | CN1CC[C@@]2(CC[C@H](c3cc(-c4cccc(C(F)(F)F)c4)ccn3)N2)C1=O [Example 75, (2R,5S)-7-Methyl-2-[4-[3-(trifluoromethyl)phenyl]-2-pyridyl]-1,7-diazaspiro[4.4]nonan-6-one hydrochloride] |
| 3.98 µM | 63.1 µM | CCOc1ccc(-c2ccnc([C@H]3CC[C@@]4(CCN(C)C4=O)N3)c2)cc1 [Example 76, (2R,5S)-2-[4-(4-Ethoxyphenyl)-2-pyridyl]-7-methyl-1,7-diazaspiro[4.4]nonan-6-one hydrochloride] |
| 31.6 µM | 316 µM | CN1CC[C@@]2(CC[C@H](c3cc(-c4cc(F)cc(F)c4)ccn3)N2)C1=O [Example 77, (2R,5S)-2-[4-(3,5-Difluorophenyl)-2-pyridyl]-7-methyl-1,7-diazaspiro[4.4]nonan-6-one hydrochloride] |
| 31.6 µM | 398 µM | CN1CC[C@@]2(CC[C@H](c3cc(-c4ccc5c(ccn5C)c4)ccn3)N2)C1=O [Example 79, (2R,5S)-7-Methyl-2-[4-(1-methylindol-5-yl)-2-pyridyl]-1,7-diazaspiro[4.4]nonan-6-one hydrochloride] |
| 200 µM | 316 µM | COc1cccc(-c2ccnc([C@H]3CC[C@@]4(CCN(C)C4=O)N3)c2)c1Cl [Example 80, (2R,5S)-2-[4-(2-Chloro-3-methoxy-phenyl)-2-pyridyl]-7-methyl-1,7-diazaspiro[4.4]nonan-6-one hydrochloride] |
| 3.16 µM | 200 µM | CN1CC[C@@]2(CC[C@H](c3cc(-c4cccc5c4OC(F)(F)O5)ccn3)N2)C1=O [Example 81, (2R,5S)-2-[4-(2,2-Difluoro-1,3-benzodioxol-4-yl)-2-pyridyl]-7-methyl-1,7-diazaspiro[4.4]nonan-6-one hydrochloride] |
| 7.94 µM | 200 µM | CCOc1cccc(-c2ccnc([C@H]3CC[C@@]4(CCN(C)C4=O)N3)c2)c1 [Example 82, (2R,5S)-2-[4-(3-Ethoxyphenyl)-2-pyridyl]-7-methyl-1,7-diazaspiro[4.4]nonan-6-one hydrochloride] |
| 31.6 µM | 200 µM | COc1ccc(Cl)c(-c2ccnc([C@H]3CC[C@@]4(CCN(C)C4=O)N3)c2)c1 [Example 83, (2R,5S)-2-[4-(2-Chloro-5-methoxy-phenyl)-2-pyridyl]-7-methyl-1,7-diazaspiro[4.4]nonan-6-one hydrochloride] |
| 20 µM | 200 µM | CN1CC[C@@]2(CC[C@H](c3cc(-c4cc(OC(F)F)ccc4F)ccn3)N2)C1=O [Example 84, (2R,5S)-2-[4-[5-(Difluoromethoxy)-2-fluoro-phenyl]-2-pyridyl]-7-methyl-1,7-diazaspiro[4.4]nonan-6-one hydrochloride] |
| 0.316 µM | 10 µM | Cc1cc(-c2ccc(OC(C)C)cc2)cc([C@H]2CC[C@@]3(CCN(C)C3=O)N2)n1 [Example 85, (2R,5S)-2-[4-(4-Isopropoxyphenyl)-6-methyl-2-pyridyl]-7-methyl-1,7-diazaspiro[4.4]nonan-6-one hydrochloride] |
| 10 µM | 100 µM | Cc1cc(-c2ccc(OC(C)C)cc2)cc([C@@H]2CC[C@@]3(CCN(C)C3=O)N2)n1 [Example 86, (2S,5S)-2-[4-(4-Isopropoxyphenyl)-6-methyl-2-pyridyl]-7-methyl-1,7-diazaspiro[4.4]nonan-6-one hydrochloride] |
| 6.31 µM | 126 µM | Cc1ccc(-c2cc(C)nc([C@H]3CC[C@@]4(CCN(C)C4=O)N3)c2)cc1 [Example 87, (2R,5S)-7-Methyl-2-[6-methyl-4-(p-tolyl)-2-pyridyl]-1,7-diazaspiro[4.4]nonan-6-one hydrochloride] |
| 31.6 µM | 316 µM | CCOc1ccc(-c2cc(C)nc([C@@H]3CC[C@@]4(CCN(C)C4=O)N3)c2)cc1 [Example 88, (2S,5S)-2-[4-(4-Ethoxyphenyl)-6-methyl-2-pyridyl]-7-methyl-1,7-diazaspiro[4.4]nonan-6-one hydrochloride] |
| 3.16 µM | 50.1 µM | CCOc1ccc(-c2cc(C)nc([C@H]3CC[C@@]4(CCN(C)C4=O)N3)c2)cc1 [Example 89, (3R,5S)-3-[4-(4-Ethoxyphenyl)-6-methyl-2-pyridyl]-8-methyl-4,8-diazaspiro[4.4]nonan-9-one hydrochloride] |
| 0.316 µM | 6.31 µM | COc1cc(C(F)(F)F)ccc1-c1cc(C)nc([C@H]2CC[C@]3(CCN(C)C3=O)N2)c1 [Example 90, (3R,5R)-3-[4-[2-Methoxy-4-(trifluoromethyl)phenyl]-6-methyl-2-pyridyl]-8-methyl-4,8-diazaspiro[4.4]nonan-9-one hydrochloride] |
| 2 µM | 39.8 µM | COc1cc(C(F)(F)F)ccc1-c1cc(C)nc([C@@H]2CC[C@]3(CCN(C)C3=O)N2)c1 [Example 91, (3S,5R)-3-[4-[2-Methoxy-4-(trifluoromethyl)phenyl]-6-methyl-2-pyridyl]-8-methyl-4,8-diazaspiro[4.4]nonan-9-one hydrochloride] |
| 2.51 µM | 39.8 µM | CCOc1ccc(F)c(-c2cc(C)nc([C@@H]3CC[C@@]4(CCN(C)C4=O)N3)c2)c1 [Example 92, (2S,5S)-2-[4-(5-Ethoxy-2-fluoro-phenyl)-6-methyl-pyridin-2-yl]-7-methyl-1,7-diaza-spiro[4.4]nonan-6-one hydrochloride] |
| 3.98 µM | 39.8 µM | CCOc1ccc(F)c(-c2cc(C)nc([C@H]3CC[C@@]4(CCN(C)C4=O)N3)c2)c1 [Example 93, (2R,5S)-2-[4-(5-Ethoxy-2-fluoro-phenyl)-6-methyl-pyridin-2-yl]-7-methyl-1,7-diaza-spiro[4.4]nonan-6-one hydrochloride] |
| 0.2 µM | 3.98 µM | Cc1cc(-c2ccc(C(F)(F)F)cc2)cc([C@H]2CC[C@@]3(CCNC3=O)N2)n1 [Example 94, (2R,5S)-2-[6-Methyl-4-[4-(trifluoromethyl)phenyl]-2-pyridyl]-1,7-diazaspiro[4.4]nonan-6-one hydrochloride] |
| 12.6 µM | 100 µM | Cc1cc(-c2ccc(C(F)(F)F)cc2)cc([C@@H]2CC[C@]3(CCNC3=O)N2)n1 [Example 95, (2S,5R)-2-[6-Methyl-4-[4-(trifluoromethyl)phenyl]-2-pyridyl]-1,7-diazaspiro[4.4]nonan-6-one hydrochloride] |
| 3.16 µM | 20 µM | Cc1cc(-c2ccc(C(F)(F)F)cc2)cc([C@H]2CC[C@]3(CCNC3=O)N2)n1 [Example 96, (2R,5R)-2-[6-Methyl-4-[4-(trifluoromethyl)phenyl]-2-pyridyl]-1,7-diazaspiro[4.4]nonan-6-one hydrochloride] |
| 1.26 µM | 20 µM | Cc1cc(-c2ccc(C(F)(F)F)cc2)cc([C@@H]2CC[C@@]3(CCNC3=O)N2)n1 [Example 97, (2S,5S)-2-[6-Methyl-4-[4-(trifluoromethyl)phenyl]-2-pyridyl]-1,7-diazaspiro[4.4]nonan-6-one hydrochloride] |
| 0.631 µM | 25.1 µM | Cc1cc(-c2ccc(C(F)(F)F)cc2)cc([C@@H]2CC[C@]3(CCCNC3=O)N2)n1 [Example 98, (2S,5S)-2-[6-Methyl-4-(4-trifluoromethyl-phenyl)-pyridin-2-yl]-1,7-diaza-spiro[4.5]decan-6-one hydrochloride] |
| 1 µM | 15.8 µM | Cc1cc(-c2ccc(C(F)(F)F)cc2)cc([C@H]2CC[C@@]3(CCCNC3=O)N2)n1 [Example 99, (2R,5R)-2-[6-Methyl-4-(4-trifluoromethyl-phenyl)-pyridin-2-yl]-1,7-diaza-spiro[4.5]decan-6-one hydrochloride] |

| SMILES | IC50 [1] | IC50 [2] |
| --- | --- | --- |
| Cc1cscc1-c1ccnc([C@H]2CC[C@@]3(CCN(C)C3=O)N2)c1 [Example 78, (2R,5S)-7-Methyl-2-[4-(4-methyl-3-thienyl)-2-pyridyl]-1,7-diazaspiro[4.4]nonan-6-one hydrochloride] | 12.6 µM | 158 µM |
